The source of these data is article PMC7177757, “The Aquaporin-3-Inhibiting Potential of Polyoxotungstates” (International Journal of Molecular Sciences, 2020).

Assay [1] addresses T1, aquaporin-3 (AQP3) (Homo sapiens, UniProt Q92482).
T1 sequence (Q92482 1-292): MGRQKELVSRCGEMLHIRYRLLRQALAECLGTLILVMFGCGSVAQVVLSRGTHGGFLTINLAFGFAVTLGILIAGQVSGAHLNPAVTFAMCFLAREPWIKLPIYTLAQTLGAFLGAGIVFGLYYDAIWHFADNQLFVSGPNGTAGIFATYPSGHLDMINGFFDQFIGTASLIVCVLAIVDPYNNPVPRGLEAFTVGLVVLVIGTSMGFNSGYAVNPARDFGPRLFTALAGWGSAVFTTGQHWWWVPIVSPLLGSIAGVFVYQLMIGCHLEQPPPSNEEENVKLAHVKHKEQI
Kind of assay: stopped-flow glycerol permeability in hRBCs. It counts as cell-based. Details: native AQP3 in human red blood cells. The settings on record: red blood cells.

The target in assay [2] is T1, aquaporin-3 (AQP3). The assay can be described thus: stopped-flow glycerol permeability in hRBCs; confirmed in yeast expressing human AQP3. Format: cell-based. Set-up: native AQP3 in human red blood cells (IC50). The settings on record: red blood cells.

As to P2W12, the midpoint of inhibition against aquaporin-3 (AQP3) [1], the IC50, lay at 2780 ± 90 nM. Turning to P2W18, on aquaporin-3 (AQP3) [2], half-maximal inhibition (IC50) was put at 800 ± 40 nM. On to P5W30, for which, on aquaporin-3 (AQP3) [1], half-maximal inhibition (IC50) was put at 3240 ± 30 nM.
